Laboratory results taken from patent US20240082228A1, “SARS-COV-2 THERAPEUTICS” (priority 2021, published 2024).
Values joined by “and” are separate entries in the source; they are usually repeats but may differ in a detail not shown here. Identical values can stand only once. Like-named read-outs stand apart in the source and are kept apart here.

Legend:
[1] = for Average Cell Number (1 uM) / Cell Number (1 uM) / Normalized Cell Number (1 uM): compound at 1 uM; for Average Cell Number (1 uM) / Average Cell Number (5 uM): average of normalized cell number, n=3, relative to DMSO; for Cell Number (1 uM) / Normalized Cell Number (1 uM) / Cell Number (5 uM) / Normalized Cell Number (5 uM): single replicate; for Cell Number (1 uM) / Cell Number (5 uM): raw cell count; for Normalized Cell Number (1 uM) / Normalized Cell Number (5 uM): relative to negative control DMSO; for Average Cell Number (5 uM) / Cell Number (5 uM) / Normalized Cell Number (5 uM): compound at 5 uM
[2] = test system: SARS-CoV-2; experiment: microbe, parasite or virus in culture; type: cell-based; details: for activity at 1 µM: Severe acute respiratory syndrome coronavirus 2, 1 uM, read-out: Normalized Infection (1 uM); for activity at 1 µM / activity at 5 µM / Normalized Infection (1 uM) / log2FC Infection (1 uM) / Normalized Infection (5 uM) / log2FC Infection (5 uM): single replicate, relative to negative control DMSO; for HIT: overall, 1 or 5 uM; for activity at 5 µM: Severe acute respiratory syndrome coronavirus 2, 5 uM, read-out: Normalized Infection (5 uM); for % Infection (1 uM) / % Infection (5 uM): single replicate of triplicate
[3] = 1 uM, average log2FC infection (n=3) relative to DMSO
[4] = 5 uM, average log2FC infection (n=3) relative to DMSO

Molecule	Toxic (1 uM) [1]	Toxic (5 uM) [1]	Average Cell Number (1 uM) [1]	Cell Number (1 uM) [1]	Normalized Cell Number (1 uM) [1]	Average Cell Number (5 uM) [1]	Cell Number (5 uM) [1]	Normalized Cell Number (5 uM) [1]	HIT (2 Std, 1 uM) ([2]; 1 uM)	Average Infection (1 uM) [2, 3]	Average Infection (5 uM) [2, 4]	activity at 1 µM [2] [%]	HIT [2]	activity at 5 µM [2] [%]	Average Infection (1 uM) [2]	Average Infection (5 uM) [2]	HIT (2 Stdv, 5 uM) ([2]; 5 uM)	further results
CN(C)[C@@H]1C(O)=C(C(N)=O)C(=O)[C@@]2(O)C(O)=C3C(=O)c4c(O)cccc4[C@@](C)(O)[C@H]3[C@H](O)[C@@H]12 [Oxytetracycline, oxytetracycline]	0 (non-toxic (Normalized Cell number>0.65)	0 (non-toxic (Normalized Cell number>0.65)	0.8352	5031 and 4848 and 4803	0.8585 and 0.8273 and 0.8196	0.976	6014 and 5768 and 5570	1.015 and 0.9733 and 0.9399	HIT	−0.4729	−0.1642	83.8	Yes	–	–	–	–	–
N=C(N)c1ccc2nc(-c3cc(CC(=O)N[C@@H](CC(=O)O)C(=O)O)cc(-c4cc(S(N)(=O)=O)ccc4O)c3O)[nH]c2c1 [PCl 27483, pci-27483]	0 (non-toxic (Normalized Cell number>0.65)	0 (non-toxic (Normalized Cell number>0.65)	0.775	4643 and 4781 and 4200	0.7923 and 0.8159 and 0.7167	0.9439	5909 and 5702 and 5170	0.9971 and 0.9622 and 0.8724	HIT	−0.6789	0.006187	58	Yes	104	–	–	–	–
CC(C)OC(=O)[C@H](C)N[P@](=O)(OC[C@H]1O[C@@H](n2ccc(=O)[nH]c2=O)[C@](C)(F)[C@@H]1O)Oc1ccccc1 [PSI-7977, Sofosbuvir]	0 (non-toxic (Normalized Cell number>0.65)	0 (non-toxic (Normalized Cell number>0.65)	1.039	6209 and 5916 and 6135	1.06 and 1.01 and 1.047	0.991	5941 and 5681 and 5997	1.002 and 0.9586 and 1.012	–	–	–	80.9	Yes	70.5	−0.27	−0.4905	HIT	–
CCC[C@H](N[C@@H](C)C(=O)N1[C@H](C(=O)O)C[C@@H]2CCCC[C@@H]21)C(=O)OCC [Perindopril, perindopril]	0 (non-toxic (Normalized Cell number>0.65)	0 (non-toxic (Normalized Cell number>0.65)	0.7365	4330 and 4259 and 4358	0.7389 and 0.7268 and 0.7437	0.9903	5734 and 6091 and 5782	0.9676 and 1.028 and 0.9757	HIT	−0.8775	−0.1846	62.3	Yes	96.4	–	–	–	–
CCCCC[C@H](O)/C=C/[C@@H]1[C@@H](C/C=C\CCCC(=O)O)[C@@H](O)C[C@H]1O [Prostagladin F2a, dinoprost]	–	–	0.8973	–	0.8613 and 0.9247 and 0.906	0.9858	–	0.988 and 0.9765 and 0.9929	HIT	−0.6806	−0.2282	58.9	Yes	83.1	–	–	–	–
Cc1cncc(CN2CCC(=C3c4ccc(Cl)cc4CCc4cccnc43)CC2)c1 [Rupatadine, rupatadine]	0 (non-toxic (Normalized Cell number>0.65)	0 (non-toxic (Normalized Cell number>0.65)	0.795	4468 and 4936 and 4572	0.7625 and 0.8423 and 0.7802	0.9184	5730 and 5462 and 5136	0.9669 and 0.9217 and 0.8667	HIT	–	–	51.5	Yes	88.1	−0.7916	−0.09608	–	–
C[C@@H]1CN(Cc2ccc(F)cc2)[C@@H](C)CN1C(=O)c1cc2c(C(=O)C(=O)N(C)C)cn(C)c2cc1Cl [SCIO 469, talmapimod]	0 (non-toxic (Normalized Cell number>0.65)	0 (non-toxic (Normalized Cell number>0.65)	0.7439	3987 and 4564 and 4526	0.6804 and 0.7788 and 0.7724	0.95	5672 and 5345 and 5872	0.9571 and 0.9019 and 0.9909	HIT	−1.039	−0.8454	47.9	Yes	57.5	–	–	HIT	–
COc1nc2ccc(Br)cc2cc1[C@@H](c1ccccc1)[C@@](O)(CCN(C)C)c1cccc2ccccc12 [TMC207, bedaquiline]	–	0 (non-toxic (Normalized Cell number>0.65)	0.6048	3465 and 3507 and 3661	0.5913 and 0.5985 and 0.6247	0.8191	5108 and 4528 and 4927	0.8619 and 0.7641 and 0.8314	HIT	−0.3556	−0.559	72.7	Yes	65.9	–	–	HIT	–
CC(C(=O)O)c1ccc(C(=O)c2ccccc2)s1 (stereo not shown) [Tiaprofenic Acid, tiaprofenic acid]	0 (non-toxic (Normalized Cell number>0.65)	0 (non-toxic (Normalized Cell number>0.65)	0.8638	5511 and 5420 and 4255	0.9404 and 0.9249 and 0.7261	0.9679	6146 and 5679 and 5383	1.037 and 0.9583 and 0.9083	HIT	−0.4462	−0.06461	71.2	Yes	–	–	–	–	–
FC(F)(F)c1cccc(C2=CCN(CCc3ccc4ccccc4c3)CC2)c1 [Xaliproden, xaliproden]	0 (non-toxic (Normalized Cell number>0.65)	0 (non-toxic (Normalized Cell number>0.65)	0.7188	4440 and 4549 and 3647	0.7577 and 0.7763 and 0.6224	0.9135	5577 and 5737 and 4927	0.9411 and 0.9681 and 0.8314	HIT	−0.6769	−0.143	–	Yes	–	–	–	–	–
cefonicid	0 (non-toxic (Normalized Cell number>0.65)	0 (non-toxic (Normalized Cell number>0.65)	0.9122	5339 and 5337 and 5361	0.9111 and 0.9108 and 0.9148	0.9876	5781 (2×) and 5996	0.9755 (2×) and 1.012	HIT	–	–	–	Yes	–	−0.4929	0.04523	–	% Infection (1 uM) ([2]; 1 uM): 19.07% and 19.19% and 17.78%; Normalized Infection (1 uM) ([2]; 1 uM): 0.7259 and 0.7305 and 0.6768; log2FC Infection (1 uM) ([2]; 1 uM): −0.4622 and −0.4531 and −0.5633; % Infection (5 uM) ([2]; 5 uM): 16.97% and 13.67% and 17.29%; Normalized Infection (5 uM) ([2]; 5 uM): 1.102 and 0.8875 and 1.123; log2FC Infection (5 uM) ([2]; 5 uM): 0.1402 and −0.1722 and 0.1676
lonafarnib	0 (non-toxic (Normalized Cell number>0.65)	–	0.6561	3801 and 4072 and 3662	0.6486 and 0.6949 and 0.6249	0.6416	3696 and 3879 and 3831	0.6546 and 0.6465	HIT	–	–	–	Yes	–	−0.6667	−1.3	HIT	% Infection (1 uM) ([2]; 1 uM): 17.44% and 15.37%; Normalized Infection (1 uM) ([2]; 1 uM): 0.6641 and 0.5853; log2FC Infection (1 uM) ([2]; 1 uM): −0.5906 and −0.7727; % Infection (5 uM) ([2]; 5 uM): 6.304% and 5.672% and 6.839%; Normalized Infection (5 uM) ([2]; 5 uM): 0.4094 and 0.3683 and 0.4442; log2FC Infection (5 uM) ([2]; 5 uM): −1.288 and −1.441 and −1.171
